Reference: patent US12122789B2, “Forms of pyrido[1,2-a]pyrimidin-4-one derivatives, its formulation and its process of making” (Hoffmann-La Roche Inc., priority 2018, dated 2024)

How the values were obtained:
[1] = relative thermodynamic stability of crystal forms (equilibration of suspensions); assay type: physicochemical; conditions: for thermodynamic stability of the polymorph: in particular between 5° C. to 65° C.
Description: Alternatively, Form A can be obtained upon equilibration of solid 7-(4,7-diazaspiro[2.5]octan-7-yl)-2-(2,8-dimethylimidazo[1,2-b]pyridazin-6-yl)pyrido[1,2-a]pyrimidin-4-one suspended in organic solvents or a mixture thereof for prolonged time. In particular 7-(4,7-diazaspiro[2.5]octan-7-yl)-2-(2,8-dimethylimidazo[1,2-b]pyridazin-6-yl)pyrido[1,2-a]pyrimidin-4-one can be suspended in ethanol, methyl ethyl ketone, ethyl acetate, or dioxane at ambient temperature or at elevated temperature (e.g. 22 to 65° C.) for 2-3 weeks affording 7-(4,7-diazaspiro[2.5]octan-7-yl)-2-(2,8-dimethylimidazo[1,2-b]pyridazin-6-yl)pyrido[1,2-a]pyrimidin-4-one as Form A.
Form D can be obtained by equilibration of solid 7-(4,7-diazaspiro[2.5]octan-7-yl)-2-(2,8-dimethylimidazo[1,2-b]pyridazin-6-yl)pyrido[1,2-a]pyrimidin-4-one suspended in water or water containing organic solvents for prolonged time. 7-(4,7-diazaspiro[2.5]octan-7-yl)-2-(2,8-dimethylimidazo[1,2-b]pyridazin-6-yl)pyrido[1,2-a]pyrimidin-4-one can be suspended in water or mixtures of organic solvent and water, in particular in ethanol/water mixtures. In particular, the mixture can be left in equilibration for 2-3 weeks in water or in ethanol/water 20/80 v/v at 65° C. to afford 7-(4,7-diazaspiro[2.5]octan-7-yl)-2-(2,8-dimethylimidazo[1,2-b]pyridazin-6-yl)pyrido[1,2-a]pyrimidin-4-one as Form D. In particular, the mixture can be left in equilibration for 2-3 weeks in water or in ethanol/water 20/80 v/v to 50/50 v/v to 80/20 v/v at approx. 22° C. to afford 7-(4,7-diazaspiro[2.5]octan-7-yl)-2-(2,8-dimethylimidazo[1,2-b]pyridazin-6-yl)pyrido[1,2-a]pyrimidin-4-one as Form D.

[2] = hygroscopicity (water uptake according to European Pharmacopoeia); assay type: physicochemical
[3] = chemical stability of the solid form; assay type: physicochemical; conditions: compared to Form D
[4] = test system: exon 7 of SMN1 and/or SMN2; experiment: inclusion of exon 7 into mRNA transcribed from the SMN1 and/or SMN2 gene; conditions: increasing expression of SMN protein in a human subject

For `Cc1cn2nc(-c3cc(=O)n4cc(N5CCNC6(CC6)C5)ccc4n3)cc(C)c2n1` [Form A, 7-(4,7-diazaspiro[2.5]octan-7-yl)-2-(2,8-dimethylimidazo[1,2-b]pyridazin-6-yl)pyrido[1,2-a]pyrimidin-4-one], the “thermodynamic stability of the polymorph” value [1] was “thermodynamic stable polymorph”, the hygroscopicity [2] was “non-hygroscopic to slightly hygroscopic” and the water uptake [2] was less than 2%. The chemical stability [3] was “improved chemical stability”.
In the case of `Cc1cn2nc(-c3cc(=O)n4cc(N5CCNC6(CC6)C5)ccc4n3)cc(C)c2n1` [Form B, 7-(4,7-diazaspiro[2.5]octan-7-yl)-2-(2,8-dimethylimidazo[1,2-b]pyridazin-6-yl)pyrido[1,2-a]pyrimidin-4-one], the “thermodynamic stability of the polymorph” value [1] is reported as “metastable polymorph”.
With `Cc1cn2nc(-c3cc(=O)n4cc(N5CCNC6(CC6)C5)ccc4n3)cc(C)c2n1` [Form D, 7-(4,7-diazaspiro[2.5]octan-7-yl)-2-(2,8-dimethylimidazo[1,2-b]pyridazin-6-yl)pyrido[1,2-a]pyrimidin-4-one] the “stability of the hydrated form” value ([1]; with sufficiently high water activity) was “stable hydrated form”.
In the case of `Cc1cn2nc(-c3cc(=O)n4cc(N5CCNC6(CC6)C5)ccc4n3)cc(C)c2n1` [Form G, 7-(4,7-diazaspiro[2.5]octan-7-yl)-2-(2,8-dimethylimidazo[1,2-b]pyridazin-6-yl)pyrido[1,2-a]pyrimidin-4-one], the “thermodynamic stability of the polymorph” value [1] is reported as “metastable polymorph”.
For `Cc1cn2nc(-c3cc(=O)n4cc(N5CCNC6(CC6)C5)ccc4n3)cc(C)c2n1` [compound of formula (I), 7-(4,7-diazaspiro[2.5]octan-7-yl)-2-(2,8-dimethylimidazo[1,2-b]pyridazin-6-yl)pyrido[1,2-a]pyrimidin-4-one], the “inclusion of exon 7 of SMN1 and/or SMN2 into mRNA” value [4] was “enhance inclusion of exon 7”.
